Measured values: patent US20100099676A1 (SHIONOGI & CO., LTD., priority 2006, published 2010)

Legend:
Assay in all cases: Enzyme inhibiting activity of MMPs, fluorogenic peptide substrate
Format in all cases: biochemical
MMP-2 = target: T1, MMP-2 (Homo sapiens, UniProt P08253); conditions: substrate MOCAc-Pro-Leu-Gly-Leu-A2Pr(DNP)-Ala-Arg-NH2, fluorescent intensity
T1 construct: purchased Calbiochem (EMD/MERCK Biosciences)
T1 sequence (P08253 110-660): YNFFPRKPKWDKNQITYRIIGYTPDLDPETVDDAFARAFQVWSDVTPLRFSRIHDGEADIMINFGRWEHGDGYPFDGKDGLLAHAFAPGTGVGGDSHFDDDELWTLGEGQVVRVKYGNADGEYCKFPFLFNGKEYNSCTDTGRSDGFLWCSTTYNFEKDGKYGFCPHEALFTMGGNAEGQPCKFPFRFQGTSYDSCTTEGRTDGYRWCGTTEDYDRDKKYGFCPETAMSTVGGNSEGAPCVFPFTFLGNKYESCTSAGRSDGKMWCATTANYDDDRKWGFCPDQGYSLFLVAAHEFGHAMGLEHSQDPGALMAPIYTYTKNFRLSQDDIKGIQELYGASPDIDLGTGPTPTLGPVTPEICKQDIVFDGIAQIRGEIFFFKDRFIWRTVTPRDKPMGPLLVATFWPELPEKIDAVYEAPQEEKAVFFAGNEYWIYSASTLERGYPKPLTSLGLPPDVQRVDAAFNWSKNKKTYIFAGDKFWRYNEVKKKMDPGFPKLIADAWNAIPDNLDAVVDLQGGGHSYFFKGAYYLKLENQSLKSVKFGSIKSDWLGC
Method: (§1) Various human MMPs (MMP-2, MMP-9 and MMP-13) were purchased from Calbiochem (EMD/MERCK Biosciences).
(§2) The enzyme activity of MMPs was measured according to the method described in C. Graham Knight, Frances Willenbrock and Gillian Murphy: A novel coumarin-labelled peptide for sensitive continuous assays of the matrix metalloproteinases: FEBS LETT., 296, (1992), 263-266. As a substrate, MOCAc-Pro-Leu-Gly-Leu-A2Pr(DNP)- Ala-Arg-NH2 (Peptide Institute, Inc. Osaka, Japan) was used, and the following four assays are performed per compound (inhibitor) for measuring the inhibiting activity.
(§3) (A) Substrate (synthetic substrate), enzyme (MMPs), inhibitor
(§4) (B) Substrate (synthetic substrate), inhibitor
(§5) (C) Substrate (synthetic substrate), enzyme (MMPs)
(§6) (D) Substrate (synthetic substrate)
(§7) In each assay, the fluorescent intensity was measured, and inhibition (%) was calculated by the following equation.
(§8) Inhibition (%)=[I−(A−B)/(C−D)]×100
(§9) IC50 indicates a concentration at which inhibition (%) is 50%.

MMP-9 = target: T2, MMP-9 (Homo sapiens, UniProt P14780); conditions: substrate MOCAc-Pro-Leu-Gly-Leu-A2Pr(DNP)-Ala-Arg-NH2, fluorescent intensity
T2 construct: purchased Calbiochem (EMD/MERCK Biosciences)
T2 sequence (P14780 94-707): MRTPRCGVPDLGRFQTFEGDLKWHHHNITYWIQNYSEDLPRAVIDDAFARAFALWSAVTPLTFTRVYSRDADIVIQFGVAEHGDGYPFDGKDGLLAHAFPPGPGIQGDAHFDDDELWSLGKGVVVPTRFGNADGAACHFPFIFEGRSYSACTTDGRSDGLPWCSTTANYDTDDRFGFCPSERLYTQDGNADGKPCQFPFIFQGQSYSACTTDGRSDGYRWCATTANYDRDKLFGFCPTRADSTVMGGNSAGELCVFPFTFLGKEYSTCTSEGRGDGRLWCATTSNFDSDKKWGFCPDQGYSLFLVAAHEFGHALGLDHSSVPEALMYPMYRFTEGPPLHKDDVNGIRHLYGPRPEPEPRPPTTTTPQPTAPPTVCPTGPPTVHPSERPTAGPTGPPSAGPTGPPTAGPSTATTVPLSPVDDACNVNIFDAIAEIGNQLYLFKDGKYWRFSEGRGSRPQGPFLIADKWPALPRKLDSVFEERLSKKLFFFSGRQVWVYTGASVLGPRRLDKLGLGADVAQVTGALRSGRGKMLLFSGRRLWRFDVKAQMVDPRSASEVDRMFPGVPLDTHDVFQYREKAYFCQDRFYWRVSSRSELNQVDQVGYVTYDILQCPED
Method: as §1, §2, §3, §4, §5, §6, §7, §8, §9

MMP-13 = target: T3, MMP-13 (Homo sapiens, UniProt P45452); conditions: APMA-activated proenzyme; substrate MOCAc-Pro-Leu-Gly-Leu-A2Pr(DNP)-Ala-Arg-NH2, fluorescent intensity; read-out: IC50 MMP-13
T3 construct: purchased Calbiochem (EMD/MERCK Biosciences)
Method: as §1
Since the purchased MMP-13 was Proenzyme, the activated one was used, which was incubated at 37° C. for 2 hours after the successive addition of an assay buffer (containing 50 mM Tris-HCl (pH7.6), 0.3 M NaCl, 10 mM CaCl2, 0.005% Brij35) and APMA (final concentration 1 mM) to the enzyme solution.
as §2, §3, §4, §5, §6, §7, §8, §9

Molecule | IC50 (MMP-2) | IC50 (MMP-9) | IC50 (MMP-13)
CC(C)[C@@H](NS(=O)(=O)N1CCN(c2ccc(C#Cc3ccnc(C(=O)NCc4ccc(C#N)cc4)c3)cc2)CC1)C(=O)O [Compound V-31, (R)-2-(4-{4-[2-(4-cyanobenzylcarbamoyl)-pyridin-4-ylethynyl]-phenyl}-piperazine-1-sulfonylamino)-3-methylbutanoic acid] | 1 to 10 µM | > 10 µM | 0.003 µM
CC(=O)Nc1cccc(-c2csc(C#Cc3ccc(N4CCN(S(=O)(=O)N[C@@H](C(=O)O)C(C)C)CC4)cc3)n2)c1 [Compound V-86, (R)-2-(4-{4-[4-(3-acetylaminophenyl)-thiazol-2-ylethynyl]-phenyl}-piperazine-1-sulfonylamino)-3-methylbutanoic acid] | 1 to 10 µM | > 10 µM | 0.012 µM
(S)-2-(4-{4-[(E)-2-(acetylnaphthalen-2-yl)-vinyl]-phenyl}-piperazine-1-sulfonylamino)-pentanoic acid [III-25] | > 10 µM | > 10 µM | 0.018 µM
C[C@@H](NS(=O)(=O)N1CCN(c2ccc(C#Cc3ccc4c(c3)C(=O)N(Cc3ccccc3)CCN4)cc2)CC1)C(=O)O [Compound V-51, (R)-2-{4-[4-(4-benzyl-5-oxo-2,3,4,5-tetrahydro-1H-benzo[e][1,4]diazepin-7-ylethynyl)-phenyl]-piperazine-1-sulfonylamino}-proponic acid] | 1 to 10 µM | > 10 µM | 0.008 µM
CC(C)COc1ccc(C#Cc2ccc(N3CCN(S(=O)(=O)N[C@@H](C(=O)O)C(C)C)CC3)cc2)cc1C(=O)NCc1ccc(S(C)(=O)=O)cc1 [Compound V-6, (R)-2-(4-{4-[4-isobutoxy-3-(4-methanesulfonylbenzylcarbamoyl)-phenylethynyl]-phenyl}-piperazine-1-sulfonylamino)-3-methylbutanoic acid] | > 10 µM | > 10 µM | 0.019 µM
CCOc1ccc(C#Cc2ccc(N3CCN(S(=O)(=O)N[C@@H](C(=O)O)C(C)C)CC3)cc2)cc1-c1ncc(CC)o1 [Compound V-26, (R)-2-(4-{4-[4-ethoxy-3-(5-ethyloxazol-2-yl)-phenylethynyl]-phenyl}-piperazine-1-sulfonylamino)-3-methylbutanoic acid] | 1 to 10 µM | > 10 µM | 0.024 µM
CC(C)[C@@H](NS(=O)(=O)N1CCN(c2ccc(C#Cc3ccc4c(c3)C(=O)N(Cc3cccc(F)c3)C(C)(C)N4)cc2)CC1)C(=O)O [Compound V-74, (R)-2(4-{4-[3-(3-fluorobenzyl)-2,2-dimethyl4-oxo-1,2,3,4-tetrahydroquinazolin-6-ylethynyl]-phenyl}-piperazine-1-sulfonylamino)-3-methylbutanoic acid] | 1 to 10 µM | > 10 µM | 0.016 µM
CC(C)[C@@H](NS(=O)(=O)N1CCN(c2ccc(C#Cc3ccc4[nH]c(=O)n(CC#N)c(=O)c4c3)cc2)CC1)C(=O)O [Compound V-63, (R)-2-{4-[4-(3-cyanomethyl-2,4-dioxo-1,2,3,4-tetrahydroquinazolin-6-ylethynyl)-phenyl]-piperazine-1-sulfonylamino}-3-methylbutanoic acid] | 1 to 10 µM | > 10 µM | 0.008 µM
CC(C)[C@@H](NS(=O)(=O)N1CCN(c2ccc(C#Cc3ccc(OCCOC(C)(C)C)c(C(=O)NCC#N)c3)cc2)CC1)C(=O)O [III-138, (R)-2-(4-{4-[4-(2-tert-butoxyethoxy)-3-(cyanomethylcarbamoyl)-phenylethynyl]-phenyl}-piperazine-1-sulfonylamino)-3-methylbutanoic acid] | 1 to 10 µM | > 10 µM | 0.018 µM
CC(C)CCOc1ccc(C#Cc2ccc(N3CCN(S(=O)(=O)N[C@@H](C(=O)O)C(C)C)CC3)cc2)cc1C(=O)NCC#N [III-99, (R)-2-(4-{4-[3-(cyanomethylcarbamoyl)-4-(3-methylbutoxy)phenylethynyl]-phenyl}-piperazine-1-sulfonylamino)-3-methylbutanoic acid] | 1 to 10 µM | > 10 µM | 0.025 µM
CC(C)[C@@H](NS(=O)(=O)N1CCN(c2ccc(C#Cc3ccnc(C(=O)NCc4ccc(Cl)cc4)c3)cc2)CC1)C(=O)O [III-144, (R)-2-(4-{4-[2-(4-chrolobenzylcarbamoyl)-pyridin-4-ylethynyl]-phenyl}-piperazine-1-sulfonylamino)-3-methylbutanoic acid] | 1 to 10 µM | > 10 µM | 0.01 µM
COc1ccc(C#Cc2ccc(N3CCN(S(=O)(=O)N[C@H](C)C(=O)O)CC3)cc2)cc1-c1ncc(CC(=O)NCc2ccccc2)o1 [Compound V-12, (R)-2-[4-(4-{3-[5-(benzylcarbamoylmethyl)-oxazol-2-yl]-4-methoxyphenylethynyl}-phenyl)-piperazine-1-sulfonylamino]-proponic acid] | 1 to 10 µM | > 10 µM | 0.004 µM

More lines, now with the values ahead:

IC50 (MMP-2) | IC50 (MMP-9) | IC50 (MMP-13) | Molecule
> 10 µM | > 10 µM | 0.019 µM | CC(C)[C@@H](NS(=O)(=O)N1CCN(c2ccc(C#Cc3ccnc(C(=O)NCc4cc(Cl)cc(Cl)c4)c3)cc2)CC1)C(=O)O [III-157, (R)-2-(4-{4-[2-(3,5-dichlorobenzylcarbamoyl)-pyridin-4-ylethynyl]-phenyl}-piperazine-1-sulfonylamino)-3-methylbutanoic acid]
1 to 10 µM | > 10 µM | 0.006 µM | C[C@@H](NS(=O)(=O)N1CCN(c2ccc(C#Cc3cc(C(=O)NCc4ccccc4)c(=O)n(C)c3)cc2)CC1)C(=O)O [III-4, (R)-2-{4-[4-(5-benzylcarbamoyl-1-methyl-6-oxo-1,6-dihydropyridin-3-ylethynyl)-phenyl]-piperazine-1-sulfonylamino}-proponic acid]
1 to 10 µM | > 10 µM | 0.017 µM | CC(C)OCCOc1ccc(C#Cc2ccc(N3CCN(S(=O)(=O)N[C@@H](C(=O)O)C(C)C)CC3)cc2)cc1C(=O)NCC#N [III-137, (R)-2-(4-{4-[3-(cyanomethylcarbamoyl)-4-(2-isopropoxyethoxy)-phenylethynyl]-phenyl}-piperazine-1-sulfonylamino)-3-methylbutanoic acid]
1 to 10 µM | 1 to 10 µM | 0.009 µM | COc1ccc(C#Cc2ccc(N3CCN(S(=O)(=O)N[C@@H](C(=O)O)C(C)C)CC3)cc2)cc1C(=O)NCC#N [III-94, (R)-2-(4-{4-[3-(cyanomethylcarbamoyl)-4-methoxyphenylethynyl]-phenyl}-piperazine-1-sulfonylamino)-3-methylbutanoic acid]
1 to 10 µM | > 10 µM | 0.006 µM | CC(C)[C@@H](NS(=O)(=O)N1CCN(c2ccc(C#Cc3ccnc(C(=O)NCc4ccc(-n5cccn5)cc4)c3)cc2)CC1)C(=O)O [III-214, (R)-3-methyl-2-(4-{4-[2-(4-pyrazol-1-ylbenzylcarbamoyl)-pyridin-4-ylethynyl]-phenyl}-piperazine-1-sulfonylamino)-butanoic acid]
> 10 µM | > 10 µM | 0.017 µM | CC(C)[C@@H](NS(=O)(=O)N1CCN(c2ccc(C#Cc3ccnc(C(=O)NCc4ccc(Br)cc4)c3)cc2)CC1)C(=O)O [III-216, (R)-2-(4-{4-[2-(4-bromobenzylcarbamoyl)-pyridin-4-ylethynyl]-phenyl}-piperazine-1-sulfonylamino)-3-methylbutanoic acid]
1 to 10 µM | > 10 µM | 0.005 µM | Cc1ccc(CNC(=O)c2cc(C#Cc3ccc(N4CCN(S(=O)(=O)N[C@@H](C(=O)O)C(C)C)CC4)cc3)ccn2)cc1 [III-193, (R)-3-methyl-2-(4-{4-[2-(4-methylbenzylcarbamoyl)-pyridin-4-ylethynyl]-phenyl}-piperazine-1-sulfonylamino)-butanoic acid]
1 to 10 µM | > 10 µM | 0.009 µM | CC(C)[C@@H](NS(=O)(=O)N1CCN(c2ccc(C#Cc3ccnc(C(=O)NCc4ccccc4)c3)cc2)CC1)C(=O)O [III-177, (R)-2-{4-[4-(2-benzylcarbamoylpyridin-4-ylethynyl)-phenyl]-piperazine-1-sulfonylamino}-3-methylbutanoic acid]
